Results published in patent US20220357313A1, “DRUG FINGERPRINTING” (Q-STATE BIOSCIENCES, INC., priority 2021, published 2022).
Structures can show the parent of a compound that is named as a salt.

Assays:
[1] = system: iPSC-derived excitatory cortical neurons (NGN2) with loss of function knockout (KO); test: Optopatch action potential features in knockout disease-model iPSC-derived cortical neurons; type: cell-based, human; settings: for cell behavior projected onto the phenotype/side effect space: KO cells, 8 concentrations from 0.28 to 600 μM, two replicates; for reversal of functional phenotype of disease-model cells (radar plots of action potential features): KO disease-model cells, features normalized to control cells
Description: In this example, iPSC-derived excitatory cortical neurons (NGN2) were grown for 30 days in a culture. The neurons expressed Optopatch proteins as described in Example 1. Two sets of neurons were grown. The first was a wildtype control line. […] The cells were stimulated using blue light as described in Example 1 and their action potentials recorded as voltage traces. Recordings were made of the control cells and disease-model cells when stimulated in the absence of any test compound. Recordings were also made of the disease-model cells when stimulated in the presence of the promiscuous potassium channel blocker 4-AP and the promiscuous sodium channel blocker lamotrigine.
FIG. 19 provides radar plots showing action potential features extracted from the recorded action potential features when stimulated by blue light. The values for the features are normalized to the control cell recordings. […] The differences in the recorded traces, select features of which are provided on the radar plots, show the functional phenotype of the disease-model in red.
FIG. 20 is a diagram illustrating phenotype reversal and “side effects” described by mapping extracted action potential features on the ˜300-dimensional space of recorded parameters, only two of which are shown. Extracted features for the control cell (WT) wells (green) are clustered as are those for the KO cells (red). The vector between these populations represents the phenotype (red). Drug effects (blue) are deconstructed into components along (phenotype reversal) and orthogonal to (side effects) the phenotype vector. An ideal drug would undo the effects of the mutation and move the well from the KO cluster to the control cell cluster.
FIG. 21 is a plot showing many wells projected onto the phenotype/side effect space. WT and KO wells are well separated along the phenotype direction. Application of the two compounds (8 concentrations from 0.28 to 600 μM) from FIG. 25 have increasing effects on KO cell behavior as the concentration increases. […] The connected drug points are in order of increasing concentration, and the two lines are experimental replicates on two consecutive weeks of experiment.

[2] = system: KCNQ2 R201C gain-of-function mutant line; test: Drug fingerprint phenotype reversal in KCNQ2 R201C line; type: cell-based; settings: several concentrations
Excerpt: (§1) An autoencoder reduces 518 features extracted from Optopatch measurements through an 8-dimensional bottleneck layer (the “embedding”) before attempting to expand back out and reconstruct the initial inputs. The embeddings are information-dense and (because of the preceding depth) reflect high-order representations. The autoencoder may implement a swish activation function between any layers (e.g., between the 518 and 50 dimensional layers, or between the 50 and 25 dimensional layers. Activation functions extend neural networks behavior to non-linear data. Thus the autoencoder is useful for deriving drug fingerprints with representation learning.
For example, the potassium voltage-gated channel subfamily Q member 2 (KCNQ2) protein and gene are implicated in KCNQ2 encephalopathy, which typically presents with seizures in the first week of life. It is understood that mutation of […] at position 201 in KCNQ2 (R201C) is a gain-of-function mutation that may give rise to KCNQ2 encephalopathy. Using methods of the invention, neurons with and without the R201C mutation may be measured with optopatch and a system such as an autoencoder may create a phenotype. Each phenotype may be plotted in the 8-dimensional space by the autoencoder, which may also plot a drug fingerprint. […]

[3] = system: neurons; test: Nearest neighbor matching of 8-dimensional drug fingerprints across the 400 compound library; type: cell-based; settings: nearest neighbor query across the 400 compound library
Excerpt: as §1
Over 400 compounds have been assessed in 10-point concentration response curves (CRCs) in neuronal excitability assays.
In general, the highest concentrations of the compounds are associated with the largest deviation from control. The action potential traces of FIG. 48 are shown to the autoencoder of FIG. 45, which derives for each compound an 8-dimensional fingerprint such as the two (two replicates of one compound) shown in FIG. 46. […]
GSK 3787 is a potent and selective peroxisome proliferator-activated receptor δ (PPARδ) antagonist. […] Software may read hundreds (e.g., 512) of features of action potentials fluorescently shown in the movies. […]

[4] = system: hiPSC-derived motor neurons; test: Optopatch excitability recording in hiPSC-derived motor neurons, before and after compound addition; type: cell-based, human; settings: 1 μM ML213; same field of view recorded before and after addition; blue light stimulus
Excerpt: Human induced pluripotent stem cells (hiPSC) were differentiated into hiPSC-derived motor neurons. The cells expressed an optogenetic proteins from the Optopatch toolkit (optical stimulation plus optical voltage reporting, e.g., CheRiff & QuasAr), which allows simultaneous optical stimulation and recording of neuronal action potentials.
The channelrhodopsin CheRiff enables action potential stimulation with blue light and the voltage-sensitive fluorescent protein QuasAr enables high-speed electrical recordings with red light. A microscope, as disclosed herein, obtained simultaneous voltage recordings from >100 individual neurons over a large (0.5×4 mm) field of view (FOV) with 1 ms temporal resolution and high signal-to-noise ratio (SNR). A digital micromirror device (DMD) in the microscope projected a fully reconfigurable optical pattern to sequentially stimulate individual cells while recording from many post-synaptic partners. […]
In every voltage trace the spikes were detected and the key spike shape and timing parameters were computed. […]
Pixels in the recording that captured fluorescence from the reporters of membrane potential in each neuron co-varied in time following that cell's unique firing pattern. […] Each FOV was recorded twice, before and after addition of potassium channel opener ML213. […]

[5] = system: E18 rat hippocampal neurons; test: Optopatch spiking behavior of cultured rat hippocampal neurons with compounds; type: cell-based; settings: for drug-induced changes in neuronal spiking behavior (radar plots): features normalized to control vehicle
Description: E18 rat hippocampal neurons were cultured for 14 days and caused to express Optopatch proteins as described in Example 1. The cells were stimulated in the presence of XE-991 (a Kv7.x blocker), ML-213 (a Kv7.x opener), α-Dendrotoxin (a Kv1.x blocker), OXO-M (a muscarinic agonist), 4AP (a promiscuous Kv blocker), Isradipine (a Cav1.x blocker), or a control vehicle.
FIG. 22 provides radar plots showing the drug-induced changes in neuronal spiking behavior along many dimensions, which are merely a subset of the action potential features extracted from recordings of the stimulated cells in the presence of one of the listed compounds. The action potential feature values were normalized to those for the cells simulated in the presence of the control vehicle. As shown in the radar plots, each compound provided a discernable and unique effect to the action potential features of the cell.
E18 rat hippocampal neurons were cultured for 14 days and caused to express Optopatch proteins as described in Example 1. The cells were placed in wells of a 96-well plate. ML-213 at 1 μM was added to alternating columns of the plate and a control vehicle added to the remaining columns. The cells in all wells were stimulated and their action potentials recorded using a microscope as described in Example 1.

[6] = system: neurons; test: Drug fingerprint activity detector in the 400 compound screen; type: cell-based; settings: Retigabine positive CTL wells
Excerpt: To address this challenge, the invention provides a neuronal fingerprinting-based activity detector. In embodiments, the method calculates the fingerprints for each sample, then determines which fingerprints lie inside the “cloud of inertness” defined by the high-n replication of control wells. Samples that give a very low probability of being inert are then labeled as active. This technique is enabled by two assets: 1) a fitted fingerprinting algorithm, such as is described above, with which to find fingerprints and 2) control samples to populate the “cloud of inertness” at the center of the fingerprint space. The determination of the probability of inertness can be made using several computationally inexpensive techniques, including multivariate gaussian distributions and nonparametric kernel density estimation.
FIG. 59 illustrates a drug fingerprint as an activity detector, which could be used for inertness identifier as well. […] Bioactivity of compounds across varying concentrations can be automatically detected in the trained drug space. […] Throughout the 400 compound screen, activity was detected for 99.8% of the Retigabine positive CTL wells and 25.1% of experimental wells (403 compounds across 10 concentrations). For compounds where activity was detected, activity was detected for 49.5% of the wells with the highest third of doses and for 61% of the highest doses. […]

SMILES | cell behavior projected onto the phenotype/side effect space [1] | reversal of functional phenotype of disease-model cells (radar plots of action potential features) [1] | drug-induced changes in neuronal spiking behavior (radar plots) [5] | also measured
Nc1ccncc1 [4-AP] | moves cell behavior toward and beyond WT behavior | substantially reversed the phenotype |  | 
O=C1N(c2ccccc2)c2ccccc2C1(Cc1ccncc1)Cc1ccncc1 [Linopirdine hydrochloride] |  |  |  | reversal of KCNQ2 R201C gain-of-function phenotype in 8-dimensional drug fingerprint space [2]: reverses the disease phenotype
Cc1cc(C)c(NC(=O)C2CC3CCC2C3)c(C)c1 (centres unmarked) [ML213] |  |  | drove cellular response, as expected | drug fingerprint similarity to query compound ICA-27243 [3]: highly similar drug fingerprints; neuronal excitability [4]: clear reduction in neuronal excitability; average firing rate during the blue light stimulus ramp ([5]; ML-213 at 1 μM versus vehicle, 96-well plate): dramatically reduces firing rate
CCOC(=O)Nc1ccc(NCc2ccc(F)cc2)cc1N [Retigabine] |  |  |  | wells in which activity was detected [6]: 99.8%
O=C1c2ccccc2C(Cc2ccncc2)(Cc2ccncc2)c2ccccc21 [XE-991] |  |  | drove cellular response, as expected | 
Nc1nnc(-c2cccc(Cl)c2Cl)c(N)n1 [lamotrigine] | moves behavior away from both WT and KO | perturbed behavior but did not reverse the phenotype |  | 
